Converted amounts (≈) assume the structure as drawn.
Experiments:
Assay in all cases: microbe, parasite or virus in culture
[1] = system: Yptb(P^−) pGC1 (empty); assay type: cell-based; settings: Yersinia pseudotuberculosis, read-out: minimum inhibitory concentration (MIC)
[2] = system: Yptb(P^−) ΔmrtAB pmrtA^+B^+; assay type: cell-based; settings: Yersinia pseudotuberculosis, read-out: minimum inhibitory concentration (MIC)
[3] = system: Yptb(P^−) pmrtA^+B^+; assay type: cell-based, Yersinia pseudotuberculosis; settings: for MIC: Yersinia pseudotuberculosis, read-out: minimum inhibitory concentration (MIC)
[4] = system: Yptb(P^−) ΔmrtAB pGC1 (empty); assay type: cell-based; settings: for MIC: Yersinia pseudotuberculosis, read-out: minimum inhibitory concentration (MIC)
[5] = system: Yptb(P^−) ΔmrtAB pmrtA^+B^+ flag; assay type: cell-based; settings: Yersinia pseudotuberculosis, read-out: minimum inhibitory concentration (MIC)

| Compound | MIC [1] | MIC [2] | MIC [3] | MIC [4] | MIC [5] | change of susceptibility on expression of mrtAB on multi-copy plasmid (pACYC 184 derivative) [3] | difference in MIC resulting from the absence of MrtAB [4] |
| --- | --- | --- | --- | --- | --- | --- | --- |
| CN(C)c1ccc2cc3ccc(N(C)C)cc3nc2c1 [aeridine orange, N,N,N′,N′-tetramethylacridine-3,6-diamine] | 50 µg/mL (≈ 188 µM) | 50 µg/mL (≈ 188 µM) | 50 µg/mL (≈ 188 µM) | 50 µg/mL (≈ 188 µM) | – | – | – |
| CC[n+]1c(-c2ccccc2)c2cc(N)ccc2c2ccc(N)cc21 [ethidium bromide] | 25 µg/mL | 100 µg/mL | 100 µg/mL | 25 µg/mL | 100 µg/mL | – | – |
| Cn1c2cccc(=O)c-2nc2ccccc21 [pyocyanin] | 1 µg/mL (≈ 4.76 µM) | 0.25 µg/mL (≈ 1.19 µM) | 0.25 µg/mL (≈ 1.19 µM) | 1 µg/mL (≈ 4.76 µM) | 0.25 µg/mL (≈ 1.19 µM) | increased susceptibility | No difference was detected |
